Results taken from patent publication US20240116891A1, “MARALIXIBAT SOLID FORMS, INTERMEDIATES AND PROCESSES OF MAKING SAME” (MIRUM PHARMACEUTICALS, INC., priority 2022, published 2024).

Legend:
Type in all cases: physicochemical
[1] = Polymorph screening (stability of solid forms); conditions: for Relative stability of solid form in polymorph screening: under the conditions tested in this study
Description: Form B was obtained from anti-solvent addition experiment with ACN/water from Form A. Form B was observed only as a wet cake, which convers back to Form A when air-dried. The XRPD, TGA/DSC, and PLM characterizations with the same parameters described above were performed. […] (FIG. 5). The weight loss started immediately with heat applied and it stopped 75° C.
(§1) The approximate solubility of compound of Formula I (starting material, prepared as described above) was measured at RT in 20 different solvents. Approximately 2 mg of starting material were added into a 3-mL glass vial. Solvents were then added step wise into the vials until the solids were dissolved or a total volume of 1 mL was reached (Note: this is not thermodynamic solubility estimation, vortex and sonication were applied in between each solvent to accelerate the dissolution). Results summarized in Table 3-1 were used to guide the solvent selection for the polymorph screening. Beginning with the starting material, polymorph screening experiments were set up using methods of Slurry at different temperatures, Slow Cooling, Liquid and Solid Vapor Diffusion, Slow Evaporation, Anti-Solvent Addition and Ionic Liquid. The methods utilized, and crystal forms identified are summarized in Table 3-2 (Type A and Form A are used interchangeably and Type B and Form B are used interchangeably).
As described above, polymorph screening experiments were set up using methods of Slurry at different temperatures, Slow Cooling, Liquid and Solid Vapor Diffusion, Slow Evaporation, Anti-Solvent Addition, and Ionic Liquid. Two types, Form A (anhydrate) and Form B (weak solvate) were obtained from the experiments.
Further investigation was performed for Form B to better understand the phase origin.
Other than Form B (i.e., Type B), no additional polymorph was observed during the rest of the screening. […]
The approximate solubility of compound of Formula II (starting material) was determined at RT in 20 different solvents. […]
The molecular structure was determined by single crystal X-ray diffraction.

[2] = Characterization of anhydrate Form II of compound of Formula III
Description: Anhydrate Form II of compound of Formula III was characterized by XRPD, TGA, DSC and HPLC. As shown in XRPD result (FIG. 11), the sample was crystalline and conformed to Form II. Its HPLC purity was determined to be 99.78 area %. […] (onset temperature) in DSC were observed. […] Form II is the stable form of compound of Formula III.

[3] = Wet cake drying study on compound of Formula II
Description: The wet cake drying study on compound of Formula II was carried out on a sample (98.67% purity of compound of Formula II) in an open dish held at 40° C. under vacuum. The sample was analyzed after one week (98.79% purity of compound of Formula II) and since the sample was stable, the study was extended another month. […] (98.74% purity of compound of Formula II).

[4] = Approximate solubility of starting material at RT in 20 solvents
Description: as §1
The approximate solubility of compound of Formula II (starting material) was determined at RT in 20 different solvents. Approximately 2 mg of the material were added into a 2-mL glass vial. Solvents were then added step into the vials until the solids were dissolved or a total volume of 1 mL was reached (Note: this is not a thermodynamic solubility estimation; vortex and sonication were applied in between each solvent addition to accelerate the dissolution). Results summarized in Table 5-1 were used to guide the solvent selection for the polymorph screening. Beginning with the starting material, polymorph screening experiments were set up using methods of Slurry at different temperatures, Slow Cooling, Liquid and Solid Vapor Diffusions, Slow Evaporation, Anti-Solvent Addition, and Ionic Liquid. No new polymorphs were observed during the screening. Type X and Form X are used interchangeably.

[5] = Long-term stability study of compound of Formula I, 25° C./60% RH
Description: Long-term and accelerated stability studies were performed as below using the compound of Formula I prepared as described in Example 2.1.
Tests include appearance, purity by HPLC, assay by HPLC, chiral purity by HPLC, and water by KF titration. […]

[6] = Heat and light stressed stability of compound of Formula I in 95/5 (v/v) acetonitrile/isopropanol solution; conditions: for Purity, Chemical / Purity, Chiral: solution
Description: In addition, the stressed stability in 95/5 (v/v) acetonitrile /isopropanol solutions was also evaluated (e.g., during the SMB separation and successive work-up). Samples were stored under two different conditions over a period of 10 days: exposed to light at room temperature and in an oven at 60° C.

[7] = DVS test of compound of Formula I
[8] = organic solvent or mixture, ACN
[9] = organic solvent or mixture, Acetone
[10] = organic solvent or mixture, Cyclohexane
[11] = organic solvent or mixture, DCM
[12] = organic solvent or mixture, DMF
[13] = organic solvent or mixture, DMSO
[14] = organic solvent or mixture, EtOAc
[15] = organic solvent or mixture, EtOH
[16] = organic solvent or mixture, IPA
[17] = organic solvent or mixture, IPAc
[18] = organic solvent or mixture, MIBK
[19] = organic solvent or mixture, MTBE
[20] = organic solvent or mixture, MeOH
[21] = organic solvent or mixture, MeTHF
[22] = organic solvent or mixture, NMP
[23] = organic solvent or mixture, Pentane
[24] = organic solvent or mixture, Toluene
[25] = organic solvent or mixture, n-Butyl Acetate
[26] = organic solvent or mixture, n-Heptane

SMILES: CCCCC1(CCCC)CS(=O)(=O)c2ccc(N(C)C)cc2[C@@H](c2ccc(OC)cc2)[C@H]1O [Form A, (4R,5R)-3,3-dibutyl-7-(dimethylamino)-4-hydroxy-5-(4-methoxyphenyl)-2,3,4,5-tetrahydrobenzo[b]thiepine 1,1-dioxide]
- Relative stability of solid form in polymorph screening [1]: most stable form

SMILES: CCCCC1(CCCC)CS(=O)(=O)c2ccc(N(C)C)cc2[C@@H](c2ccc(O)cc2)[C@H]1O [Form X, (4R,5R)-3,3-dibutyl-7-(dimethylamino)-4-hydroxy-5-(4-hydroxyphenyl)-2,3,4,5-tetrahydrobenzo[b]thiepine 1,1-dioxide]
- Relative stability of solid form in polymorph screening [1]: most stable form

SMILES: CCCCC1(CCCC)CS(=O)(=O)c2ccc(N(C)C)cc2[C@@H](c2ccc(OCc3ccc(C[N+]45CCN(CC4)CC5)cc3)cc2)[C@H]1O.[Cl-] [Form II, 1-(4-((4-((4R,5R)-3,3-dibutyl-7-(dimethylamino)-4-hydroxy-1,1-dioxido-2,3,4,5-tetrahydrobenzo[b]thiepin-5-yl)phenoxy)methyl)benzyl)-1,4-diazabicyclo[2.2.2] octan-1-ium chloride]
- Stability of solid form [2]: stable form

SMILES: CCCCC1(CCCC)CS(=O)(=O)c2ccc(N(C)C)cc2[C@@H](c2ccc(O)cc2)[C@H]1O [Formula II, (4R,5R)-3,3-dibutyl-7-(dimethylamino)-4-hydroxy-5-(4-hydroxyphenyl)-2,3,4,5-tetrahydrobenzo[b]thiepine 1,1-dioxide]
- Purity of compound of Formula II ([3]; open dish, 40° C. under vacuum, after one week): 98.79%
- Purity of compound of Formula II ([3]; open dish, 40° C. under vacuum, study extended another month): 98.74%
- Hold time of the solid ([3]; under vacuum at 40° C.): at least a month
- Purity of compound of Formula II ([3]; wet cake sample at start of study): 98.67%
- solubility [4, 8]: 2.9 to 9.7 mg/mL
- solubility [4, 9]: 26 to 52 mg/mL
- solubility [4, 10]: < 2 mg/mL
- solubility [4, 11]: 8.7 to 26 mg/mL
- solubility [4, 12]: > 40 mg/mL
- solubility [4, 13]: > 44 mg/mL
- solubility [4, 14]: 20 to 40 mg/mL
- solubility [4, 15]: 2.7 to 9.3 mg/mL
- solubility [4, 16]: 2.6 to 8.7 mg/mL
- solubility [4, 17]: 7.7 to 23 mg/mL
- solubility [4, 18]: 21 to 43 mg/mL
- solubility [4, 19]: 2.4 to 8 mg/mL
- solubility [4, 20]: 7.3 to 22 mg/mL
- solubility [4, 21]: 21 to 42 mg/mL
- solubility [4, 22]: > 44 mg/mL
- solubility [4, 23]: < 2.7 mg/mL
- solubility [4, 24]: < 2.8 mg/mL
- solubility [4, 25]: 8.3 to 25 mg/mL
- solubility [4, 26]: < 2 mg/mL
- solubility ([4]; water, H2O): < 2 mg/mL

SMILES: CCCCC1(CCCC)CS(=O)(=O)c2ccc(N(C)C)cc2[C@@H](c2ccc(OC)cc2)[C@H]1O [Form B, (4R,5R)-3,3-dibutyl-7-(dimethylamino)-4-hydroxy-5-(4-methoxyphenyl)-2,3,4,5-tetrahydrobenzo[b]thiepine 1,1-dioxide]
- Solid form after air-drying of the wet cake (XRPD) ([1]; air-dried overnight): converted back to Form A

SMILES: CCCCC1(CCCC)CS(=O)(=O)c2ccc(N(C)C)cc2[C@@H](c2ccc(OC)cc2)[C@H]1O [Formula I, (4R,5R)-3,3-dibutyl-7-(dimethylamino)-4-hydroxy-5-(4-methoxyphenyl)-2,3,4,5-tetrahydrobenzo[b]thiepine 1,1-dioxide]
- Appearance (Color, morphology) ([5]; 0 months): Off-white
- HPLC Assay ([5]; 0 months): 95.5% w/w
- HPLC Purity ([5]; 0 months): 99.6% a/a
- HPLC Purity - Chiral ([5]; 0 months): 100.0% a/a
- Water by KF Titration ([5]; 0 months): <0.1% w/w
- Appearance (Color, morphology) ([5]; 3 months): Off-white
- HPLC Assay ([5]; 3 months): 96.3% w/w
- HPLC Purity ([5]; 3 months): 99.9% a/a
- HPLC Purity - Chiral ([5]; 3 months): 100.0% a/a
- Water by KF Titration ([5]; 3 months): <0.1% w/w
- Appearance (Color, morphology) ([5]; 6 months): Off-white
- HPLC Assay ([5]; 6 months): 96.4% w/w
- HPLC Purity ([5]; 6 months): 99.8% a/a
- HPLC Purity - Chiral ([5]; 6 months): 100.0% a/a
- Water by KF Titration ([5]; 6 months): <0.1% w/w
- Appearance (Color, morphology) ([5]; 12 months): Off-white
- HPLC Assay ([5]; 12 months): 96.5% w/w
- HPLC Purity ([5]; 12 months): 99.8% a/a
- HPLC Purity - Chiral ([5]; 12 months): 100.0% a/a
- Water by KF Titration ([5]; 12 months): <0.1% w/w
- Stability (chemical and chiral purity) for SMB operation and work-up ([6]; 95/5 (v/v) acetonitrile/isopropanol, 10 days, light at RT or 60° C.): adequate stability
- Purity, Chemical ([6]; RT (light), Day 0): 99.4 % a/a
- Purity, Chiral ([6]; RT (light), Day 0): 99.6 % a/a
- Purity, Chemical ([6]; RT (light), Day 3): 99.4 % a/a
- Purity, Chiral ([6]; RT (light), Day 3): 99.6 % a/a
- Purity, Chemical ([6]; RT (light), Day 7): 99.4 % a/a
- Purity, Chiral ([6]; RT (light), Day 7): 99.7 % a/a
- Purity, Chemical ([6]; RT (light), Day 10): 99.4 % a/a
- Purity, Chiral ([6]; RT (light), Day 10): 99.4 % a/a
- Purity, Chemical ([6]; T = 60° C., Day 0): 99.3 % a/a
- Purity, Chiral ([6]; T = 60° C., Day 0): 99.7 % a/a
- Purity, Chemical ([6]; T = 60° C., Day 3): 98.7 % a/a
- Purity, Chiral ([6]; T = 60° C., Day 3): 99.5 % a/a
- Purity, Chemical ([6]; T = 60° C., Day 7): 98.5 % a/a
- Purity, Chiral ([6]; T = 60° C., Day 7): 99.8 % a/a
- Purity, Chemical ([6]; T = 60° C., Day 10): 98.5 % a/a
- Purity, Chiral ([6]; T = 60° C., Day 10): 99.7 % a/a
- Form transition before and after DVS test [7]: no form transition observed
- Hygroscopicity by DVS [7]: Non-hygroscopic
- solubility [4, 8]: > 44 mg/mL
- solubility [4, 9]: > 54 mg/mL
- solubility [4, 10]: < 2 mg/mL
- solubility [4, 11]: > 58 mg/mL
- solubility [4, 12]: > 48 mg/mL
- solubility [4, 13]: > 50 mg/mL
- solubility [4, 14]: > 40 mg/mL
- solubility [4, 15]: 27 to 54 mg/mL
- solubility [4, 16]: 7.3 to 22 mg/mL
- solubility [4, 17]: 24 to 48 mg/mL
- solubility [4, 18]: > 50 mg/mL
- solubility [4, 19]: 9.3 to 28 mg/mL
- solubility [4, 20]: 29 to 58 mg/mL
- solubility [4, 21]: > 56 mg/mL
- solubility [4, 22]: > 46 mg/mL
- solubility [4, 23]: < 2.7 mg/mL
- solubility [4, 24]: > 54 mg/mL
- solubility [4, 25]: > 56 mg/mL
- solubility [4, 26]: < 2.8 mg/mL
- solubility ([4]; water, H2O): < 2.3 mg/mL
